Reference: patent US20230192691A1, “HETEROCYCLIC COMPOUNDS AS BTK INHIBITORS” (Beijing InnoCare Pharma Tech Co., Ltd., priority 2020, published 2023)

What was measured:
[1] = target: T1, human-derived recombinant BTK protein (Homo sapiens, UniProt Q06187); assay: BTK activity inhibition assay (HTRF in vitro kinase assay); assay type: biochemical; conditions: 40 μM ATP, 0.2 ng/μL BTK
T1 construct: purchased Carna Biosciences 08-180
Procedure: In vitro kinase assay was used to evaluate the effects of compounds of the present invention on BTK activity (Table 1).
(§1) By using the homogeneous time-resolved fluorescence (HTRF) kinase detection kit (Cisbio, catalog number 62TK0PEC), the enzymatic activity of BTK is determined by detecting the phosphorylation level of the substrate in the kinase reaction. The reaction buffer contains the enzyme reaction buffer (1×) from the kit, 5 mM MgCl2, 1 mM DTT, 10 nM SEB and 0.01% Tween-20; the kinase reaction solution contains human-derived recombinant BTK protein (Carna Biosciences, Catalog No. 08-180) diluted to 0.2 ng/μL with the reaction buffer; the substrate reaction solution contains biotin-labeled tyrosine kinase substrate diluted to 0.5 μM with the reaction buffer and 40 μM ATP; the detection buffer contains Eu^3+-labeled cage antibody diluted to 0.05 ng/μL and streptavidin-labeled XL665 antibody diluted to 31.25 nM with the reaction buffer; the test compound is dissolved and diluted to 100 μM with DMSO, followed by a 4-fold serial dilution with DMSO to the lowest concentration of 6.1 nM and finally 40-time dilution with the reaction buffer for each concentration point. If the IC50 value of the compound is very low, the initial concentration of the compound is reduced.
(§2) Add 4 μL test compound solution and 2 μL kinase reaction solution to a 384-well detection plate (Corning, catalog number 3674), mix well and incubate at room temperature for 15 minutes; add 4 μL substrate reaction solution and incubate for 50 minutes; add 10 μL detection buffer, mix well and stand for 60 minutes; detect signal at 620 nm and 665 nm using an Envision plate reader (Perkin Elmer). The signal value (absorbance at 665 nm/absorbance at 620 nm) is positively correlated with the degree of phosphorylation of the substrate, thereby detecting the kinase activity of BTK. In this experiment, the group without BTK is the negative control (100% inhibition) and the group with BTK but no compound is the positive control (0% inhibition). The inhibition curve is plotted and the corresponding IC50 value of the test compound is calculated using XLfit software (ID Business Solutions Ltd., UK).

[2] = target: T2, human recombinant BTK C481S protein (Homo sapiens, UniProt Q06187, C481S); assay: BTK C481S activity inhibition assay (HTRF in vitro kinase assay); assay type: biochemical; conditions: 35 μM ATP, 1.5 ng/μL BTK C481S
T2 construct: made in house
T2 sequence (Q06187 whole entry C481S): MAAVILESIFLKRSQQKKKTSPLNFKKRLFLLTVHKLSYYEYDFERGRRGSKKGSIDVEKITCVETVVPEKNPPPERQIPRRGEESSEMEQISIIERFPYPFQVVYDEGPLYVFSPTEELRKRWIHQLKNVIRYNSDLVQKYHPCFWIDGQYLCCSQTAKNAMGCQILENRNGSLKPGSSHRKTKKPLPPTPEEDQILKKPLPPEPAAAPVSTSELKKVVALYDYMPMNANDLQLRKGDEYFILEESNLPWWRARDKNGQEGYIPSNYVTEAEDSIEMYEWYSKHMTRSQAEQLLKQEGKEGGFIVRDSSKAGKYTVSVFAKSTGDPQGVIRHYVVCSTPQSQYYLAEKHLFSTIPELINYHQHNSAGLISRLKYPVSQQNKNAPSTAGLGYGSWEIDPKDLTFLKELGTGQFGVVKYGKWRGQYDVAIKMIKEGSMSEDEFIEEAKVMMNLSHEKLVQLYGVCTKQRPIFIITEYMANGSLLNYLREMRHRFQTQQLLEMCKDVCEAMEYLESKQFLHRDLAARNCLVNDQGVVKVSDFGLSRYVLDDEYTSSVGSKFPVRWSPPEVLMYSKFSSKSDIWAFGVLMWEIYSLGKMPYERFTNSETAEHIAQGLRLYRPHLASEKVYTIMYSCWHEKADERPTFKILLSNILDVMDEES
Procedure: In vitro kinase assay was used to evaluate the effects of compounds of the present invention on BTK C481S activity (Table 1).
as §1, with “BTK C481S” for “BTK”, “nM SEB,” for “nM SEB”, “contains human” for “contains human-derived”, “protein (purified in-house)” for “protein (Carna Biosciences, Catalog No. 08-180)”, “to 1.5” for “to 0.2”, “and 35” for “and 40”
as §2, with “activity of BTK C481S. In this” for “activity of BTK. In this”, “with BTK C481 S but no” for “with BTK but no”, “XLfit software (TD Business Solutions” for “XLfit software (ID Business Solutions”

T1 sequence (Q06187 whole entry): as the sequence (Q06187 whole entry C481S) above, with S481C counted along it

SMILES	IC50 [1]	IC50 [2]
COc1ccc(F)cc1C(=O)NCc1ccc(-c2nc(C34CCC(C(=O)N5CCOCC5)(CC3)CC4)n3ccnc(N)c23)cc1 [Compound 37, N-(4-(8-amino-3-(4-(morpholine-4-carbonyl)bicyclo[2.2.2]octan-1-yl)imidazo[1,5-a]pyrazin-1-yl)benzyl)-5-fluoro-2-methoxybenzamide]	1.3 nM	1.9 nM
COc1ccc(F)cc1C(=O)NCc1ccc(-c2nc([C@]3(C)CC[C@](C)(C(=O)OC)CC3)n3ccnc(N)c23)cc1 [Compound 39, methyl (1s,4s)-4-(8-amino-1-(4-((5-fluoro-2-methoxybenzamido)methyl)phenyl)imidazo[1,5-a]pyrazin-3-yl)-1,4-dimethylcyclohexane-1-carboxylate]	3.3 nM	0.6 nM
Nc1nccn2c(C3CCC(CO)OC3)nc(-c3ccc(CNC(=O)c4ccccn4)cc3)c12 (stereo not shown) [Compound 9, N-(4-(8-amino-3-(6-(hydroxymethyl)tetrahydro-2H-pyran-3-yl)imidazo[1,5-a]pyrazin-1-yl)benzyl)picolinamide]	718 nM	498 nM
COc1ccc(F)cc1C(=O)NCc1ccc(-c2nc([C@H]3CC[C@H](CO)CC3)n3ccnc(N)c23)cc1 [Compound 5, N-(4-(8-amino-3-((1r,4r)-4-(hydroxymethyl)cyclohexyl)imidazo[1,5-a]pyrazin-1-yl)benzyl)-5-fluoro-2-methoxybenzamide]	4.6 nM	2.6 nM
COc1ccc(F)cc1C(=O)NCc1ccc(-n2c(=O)n(C34CCC(C(=O)O)(CC3)CC4)c3ncnc(N)c32)cc1 [Compound 48, 4-(6-amino-7-(4-((5-fluoro-2-methoxybenzamido)methyl)phenyl)-8-oxo-7,8-dihydro-9H-purin-9-yl)bicyclo[2.2.2]octane-1-carboxylic acid]	1.2 nM	8.2 nM
COc1ccc(F)cc1C(=O)NCc1ccc(-c2nc([C@H]3CC[C@H](C(=O)O)CC3)n3ncnc(N)c23)cc1 [Compound 15, (1r,4r)-4-(4-amino-5-(4-((5-fluoro-2-methoxybenzamido)methyl)phenyl)imidazo[5,1-f][1,2,4]triazin-7-yl)cyclohexane-1-carboxylic acid]	1.4 nM	1.1 nM
COC(=O)C12CCC(c3nc(-c4ccc(CNC(=O)c5cc(F)ccc5OC)cc4)c4c(N)nccn34)(CC1)C2 [Compound 38, methyl 4-(8-amino-1-(4-((5-fluoro-2-methoxybenzamido)methyl)phenyl)imidazo[1,5-a]pyrazin-3-yl)bicyclo[2.2.1]heptane-1-carboxylate]	2.9 nM	2.1 nM
COc1ccc(F)cc1C(=O)NCc1ccc(-c2nc(C3(C(F)(F)F)CC3)n3ncnc(N)c23)cc1 [Compound 43, N-(4-(4-amino-7-(1-(trifluoromethyl)cyclopropyl)imidazo[5,1-f][1,2,4]triazin-5-yl)benzyl)-5-fluoro-2-methoxybenzamide]	2.7 nM	5.4 nM
COc1ccc(F)cc1C(=O)NCc1ccc(-c2nn([C@H]3CC[C@H](O)CC3)c3ccnc(N)c23)cc1 [Compound 4, N-(4-(4-amino-1-((1r,4r)-4-hydroxycyclohexyl)-1H-pyrazolo[4,3-c]pyridin-3-yl)benzyl)-5-fluoro-2-methoxybenzamide]	2.3 nM	3 nM
COc1ccc(F)cc1C(=O)NCc1ccc(-c2nc([C@]3(C)CC[C@](C)(C(=O)O)CC3)n3ncnc(N)c23)cc1 [Compound 46, (1s,4s)-4-(4-amino-5-(4-((5-fluoro-2-methoxybenzamido)methyl)phenyl)imidazo[5,1-f][1,2,4]triazin-7-yl)-1,4-dimethylcyclohexane-1-carboxylic acid]	7.7 nM	1.6 nM
COc1ccc(F)cc1C(=O)NCc1ccc(-c2nn(C3CCC(CO)CC3)c3ccnc(N)c23)cc1 (stereo not shown) [Compound 2, N-(4-(4-amino-1-(4-(hydroxymethyl)cyclohexyl)-1H-pyrazolo[4,3-c]pyridin-3-yl)benzyl)-5-fluoro-2-methoxybenzamide]	1.7 nM	2.5 nM
COc1ccc(F)cc1C(=O)NCc1ccc(-n2c(=O)n(C(C)C(F)(F)F)c3ncnc(N)c32)cc1 (stereo not shown) [Compound 53, N-(4-(6-amino-8-oxo-9-(1,1,1-trifluoropropan-2-yl)-8,9-dihydro-7H-purin-7-yl)benzyl)-5-fluoro-2-methoxybenzamide]	5.6 nM	21 nM
COc1ccc(F)cc1C(=O)NCc1ccc(-c2nc(N3CCC(CO)CC3)n3ccnc(N)c23)cc1 [Compound 6, N-(4-(8-amino-3-(4-(hydroxymethyl)piperidin-1-yl)imidazo[1,5-a]pyrazin-1-yl)benzyl)-5-fluoro-2-methoxybenzamide]	4.6 nM	3.3 nM
COc1ccc(F)cc1C(=O)NCc1ccc(-n2c(=O)n([C@H]3CC[C@H](CO)CC3)c3ncnc(N)c32)cc1 [Compound 50, N-(4-(6-amino-9-((1r,4r)-4-(hydroxymethyl)cyclohexyl)-8-oxo-8,9-dihydro-7H-purin-7-yl)benzyl)-5-fluoro-2-methoxybenzamide]	2.4 nM	20 nM
COc1ccc(F)cc1C(=O)NCc1ccc(-c2nc([C@H]3CC[C@H](CN)CC3)n3ccnc(N)c23)cc1 [Compound 7, N-(4-(8-amino-3-((1r,4r)-4-(aminomethyl)cyclohexyl)imidazo[1,5-a]pyrazin-1-yl)benzyl)-5-fluoro-2-methoxybenzamide]	3.4 nM	1.7 nM
COc1ccc(F)cc1C(=O)NCc1ccc(-c2nc(C3CCOC3)n3ncnc(N)c23)cc1 (stereo not shown) [Compound 17, N-(4-(4-amino-7-(tetrahydrofuran-3-yl)imidazo[5,1-f][1,2,4]triazin-5-yl)benzyl)-5-fluoro-2-methoxybenzamide]	6.3 nM	2.4 nM
COc1ccc(F)cc1C(=O)NCc1ccc(-c2nc(N3CCOCC3)n3ncnc(N)c23)cc1 [Compound 45, N-(4-(4-amino-7-morpholinoimidazo[5,1-f][1,2,4]triazin-5-yl)benzyl)-5-fluoro-2-methoxybenzamide]	9.4 nM	2.6 nM
COC(=O)C12CCC(c3nc(-c4ccc(CNC(=O)c5cc(F)ccc5OC)cc4)c4c(N)nccn34)(CC1)CC2 [Compound 33, methyl 4-(8-amino-1-(4-((5-fluoro-2-methoxybenzamido)methyl)phenyl)imidazo[1,5-a]pyrazin-3-yl)bicyclo[2.2.2]octane-1-carboxylate]	0.8 nM	1.8 nM
COc1ccc(F)cc1C(=O)NCc1ccc(-n2c(=O)n(C3CCOCC3)c3ccnc(N)c32)cc1 [Compound 52, N-(4-(4-amino-2-oxo-1-(tetrahydro-2H-pyran-4-yl)-1,2-dihydro-3H-imidazo[4,5-c]pyridin-3-yl)benzyl)-5-fluoro-2-methoxybenzamide]	7.2 nM	30 nM
CNC(=O)C12CCC(c3nc(-c4ccc(CNC(=O)c5cc(F)ccc5OC)cc4)c4c(N)nccn34)(CC1)CC2 [Compound 36, 4-(8-amino-1-(4-((5-fluoro-2-methoxybenzamido)methyl)phenyl)imidazo[1,5-a]pyrazin-3-yl)-N-methylbicyclo[2.2.2]octane-1-carboxamide]	0.9 nM	3.4 nM
